Measured values taken from ChEMBL document CHEMBL1201862, “PubChem BioAssay data set” (2004).
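Step 1: Grow cells in 96-well plates. Step 2: Expose to compound for 48 hours at 5 concentrations. Step 3: Interpolate endpoints linearly; if unreached, use highest concentration. GI50 marks 50% less growth.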 The source made the active and inactive calls. Cut-off read from the data, not from the text of the source: active = GI50 up to about 1.1 µM and inactive = higher.

Assays:
Test in all cases: NCI anticancer screen, dose series, 48 h
HCT-15 = system: HCT-15
DMS-114 = system: DMS-114
HL-60 = system: HL-60
ACHN = system: ACHN
OVCAR-3 = system: OVCAR-3
UACC-257 = system: UACC-257
IGROV-1 = system: IGROV-1
HCT-116 = system: HCT-116
SF-539 = system: SF-539
LXFL 529 = system: LXFL 529
SK-MEL-5 = system: SK-MEL-5
EKVX = system: EKVX
M14 = system: M14
SNB-19 = system: SNB-19
RPMI-8226 = system: RPMI-8226
CCRF-CEM = system: CCRF-CEM
DU-145 = system: DU-145
A498 = system: A498
XF498 = system: XF498
DLD-1 = system: DLD-1

| SMILES | GI50 (HCT-15) [µM] | GI50 (DMS-114) | GI50 (HL-60) | GI50 (ACHN) | GI50 (OVCAR-3) | GI50 (UACC-257) | GI50 (IGROV-1) | GI50 (HCT-116) | GI50 (SF-539) | GI50 (LXFL 529) | GI50 (SK-MEL-5) | GI50 (EKVX) | GI50 (M14) | GI50 (SNB-19) | GI50 (RPMI-8226) | GI50 (CCRF-CEM) | GI50 (DU-145) | GI50 (A498) | GI50 (XF498) | GI50 (DLD-1) |
| --- | --- | --- | --- | --- | --- | --- | --- | --- | --- | --- | --- | --- | --- | --- | --- | --- | --- | --- | --- | --- |
| CCn1cnnc1-c1nsc2ccccc12 | > 100 | > 100 µM (inactive) | > 100 µM (inactive) | > 100 µM (inactive) | 65.9 µM (inactive) | > 100 µM (inactive) | > 100 µM (inactive) | > 100 µM (inactive) | > 100 µM (inactive) | > 100 µM (inactive) | 83.8 µM (inactive) | 26.9 µM (inactive) | > 100 µM (inactive) | > 100 µM (inactive) | > 100 µM (inactive) | > 100 µM (inactive) |  |  |  |  |
| CC1(C)OCC=CCO1 |  |  | 71.4 µM (inactive) | > 100 µM (inactive) | 59.7 µM (inactive) | > 100 µM (inactive) | > 100 µM (inactive) | > 100 µM (inactive) | 67.8 µM (inactive) |  | > 100 µM (inactive) | > 100 µM (inactive) | > 100 µM (inactive) | > 100 µM (inactive) | > 100 µM (inactive) | 62.5 µM (inactive) | > 100 µM (inactive) |  |  |  |
| N/C(=N/O)N/N=C\c1cc(Cl)cc(Cl)c1O | 2.02 |  | 0.0116 µM (active) |  | 5.41 µM (inactive) | 4.34 µM (inactive) | 6.97 µM (inactive) | 1.36 µM (inactive) | 1.64 µM (inactive) |  | 3.3 µM (inactive) | 6.71 µM (inactive) |  | 2.27 µM (inactive) | 3.99 µM (inactive) | 0.193 µM (active) |  | 6.38 µM (inactive) | 0.708 µM (active) | 7.48 µM (inactive) |
| Nc1c(-c2ccccc2[N+](=O)[O-])nc2ccccn12 | > 100 | > 100 µM (inactive) | > 100 µM (inactive) | > 100 µM (inactive) | > 100 µM (inactive) | > 100 µM (inactive) | > 100 µM (inactive) | > 100 µM (inactive) |  | > 100 µM (inactive) | > 100 µM (inactive) | > 100 µM (inactive) | > 100 µM (inactive) |  | > 100 µM (inactive) | > 100 µM (inactive) |  |  |  | > 100 µM (inactive) |
| COc1ccc(C2C(Cl)C(=O)N2NC(=O)c2ccc(NC(C)=O)cc2)cc1OC (stereo not drawn) |  |  | > 100 µM (inactive) | > 100 µM (inactive) | > 100 µM (inactive) | > 100 µM (inactive) | > 100 µM (inactive) | > 100 µM (inactive) | > 100 µM (inactive) | > 100 µM (inactive) | > 100 µM (inactive) |  |  | > 100 µM (inactive) | > 100 µM (inactive) | > 100 µM (inactive) |  |  |  |  |
| O=[N+]([O-])c1cc(C(F)(F)F)cc2c1SC1=Nc3ccccc3CN12 | > 100 | > 100 µM (inactive) | > 100 µM (inactive) |  | > 100 µM (inactive) | > 100 µM (inactive) | > 100 µM (inactive) | > 100 µM (inactive) | > 100 µM (inactive) |  | > 100 µM (inactive) | > 100 µM (inactive) |  | > 100 µM (inactive) | > 100 µM (inactive) | > 100 µM (inactive) |  | > 100 µM (inactive) | > 100 µM (inactive) | > 100 µM (inactive) |
| CCOC(=O)c1cc(Cl)ccc1OC(N)=O | > 100 | > 100 µM (inactive) | > 100 µM (inactive) |  | > 100 µM (inactive) | > 100 µM (inactive) | > 100 µM (inactive) | > 100 µM (inactive) | > 100 µM (inactive) |  | > 100 µM (inactive) | > 100 µM (inactive) |  | > 100 µM (inactive) | > 100 µM (inactive) | > 100 µM (inactive) |  | > 100 µM (inactive) | > 100 µM (inactive) | > 100 µM (inactive) |
| CC[C@@H]1ON(C)[C@H]2CN(C)C(=O)[C@@H]12 | > 100 |  | > 100 µM (inactive) | > 100 µM (inactive) | > 100 µM (inactive) | > 100 µM (inactive) | > 100 µM (inactive) | > 100 µM (inactive) |  |  | > 100 µM (inactive) |  | > 100 µM (inactive) | > 100 µM (inactive) | > 100 µM (inactive) | > 100 µM (inactive) | > 100 µM (inactive) |  |  |  |
| COCOc1ccc(OC)cc1 | > 100 |  | > 100 µM (inactive) |  | > 100 µM (inactive) | > 100 µM (inactive) | > 100 µM (inactive) | > 100 µM (inactive) | > 100 µM (inactive) |  | > 100 µM (inactive) | > 100 µM (inactive) |  | > 100 µM (inactive) | > 100 µM (inactive) | > 100 µM (inactive) |  | > 100 µM (inactive) | > 100 µM (inactive) | > 100 µM (inactive) |
| N#Cc1ccc([N+](=O)[O-])cc1NC(N)=S | > 100 |  |  |  | > 100 µM (inactive) |  | > 100 µM (inactive) | > 100 µM (inactive) | > 100 µM (inactive) | 16.3 µM (inactive) | > 100 µM (inactive) | > 100 µM (inactive) | > 100 µM (inactive) | > 100 µM (inactive) | > 100 µM (inactive) |  |  | > 100 µM (inactive) | > 100 µM (inactive) |  |
| CC1CCN(c2cc(-c3cc4ccccc4o3)oc(=O)c2C#N)CC1 | > 100 | > 100 µM (inactive) | 65.8 µM (inactive) | > 100 µM (inactive) |  | > 100 µM (inactive) | > 100 µM (inactive) | > 100 µM (inactive) | 89.1 µM (inactive) | > 100 µM (inactive) | > 100 µM (inactive) | > 100 µM (inactive) | > 100 µM (inactive) | > 100 µM (inactive) | > 100 µM (inactive) | > 100 µM (inactive) |  | > 100 µM (inactive) | > 100 µM (inactive) | > 100 µM (inactive) |
